Some test systems named below: M14 melanoma; RXF 393 renal; 786-0 renal; OVCAR-8 ovarian; SK-MEL-2 melanoma; HS 578T breast; COLO 205 colon; UACC-257 melanoma; DU-145 prostate; SN12C renal.
Holding throughout (test): NCI-60 cell line screen, 48 h

Molecules are shown by their SMILES.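 Where inhibition never reached the appropriate level, the endpoint shown equals the highest concentration tested. Otherwise, values were interpolated linearly from a five-concentration, 48-hour dose response in 96-well plates. Abbreviation: GI50, concentration required for 50% inhibition of growth. At the TGI there is no net growth.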

Consider `CCN(CC)c1ccc(NC(C(=O)c2ccccc2)c2ccccc2)cc1` (centres undefined), for which the GI50 in the assay with M14 melanoma was 2.16 µM; in the assay on RXF 393 renal, 1.7 µM; with 786-0 renal, 1.83 µM; in the assay with OVCAR-8 ovarian it was 3.28 µM; with SK-MEL-2 melanoma, 3.44 µM; with HS 578T breast, 3.41 µM. Moreover, the GI50 is 3.41 µM with COLO 205 colon, 4.86 µM with UACC-257 melanoma and 2.24 µM with DU-145 prostate. The TGI in the assay on M14 melanoma was 5.91 µM; in the assay on RXF 393 renal, 3.47 µM; in the assay with 786-0 renal it was 3.59 µM; with OVCAR-8 ovarian, greater than 100 µM; with SK-MEL-2 melanoma, 16.8 µM; in the assay on HS 578T breast, 47.1 µM. Further, the TGI in the assay with COLO 205 colon was 11.9 µM; in the assay on UACC-257 melanoma it was 22.1 µM; with DU-145 prostate, 5.08 µM.

As for `COc1cc2c(cc1OC)C13CCN4CC5=CCOC(CC(=O)O)C(C5CC41)C3N2` (centres undefined), the TGI in the assay on M14 melanoma, in the assay on SN12C renal, in the assay with 786-0 renal, in the assay on OVCAR-8 ovarian, in the assay on SK-MEL-2 melanoma and in the assay with HS 578T breast was greater than 100 µM throughout. Moreover, the TGI in the assay with COLO 205 colon and in the assay on UACC-257 melanoma was greater than 100 µM throughout.

Regarding `COc1ccc2c(c1)C(=O)c1c-2c(NCCCN(C)C)nc2ccccc12`, the GI50 in the assay with M14 melanoma was 5.41 µM; in the assay with SN12C renal, 2.26 µM; in the assay on 786-0 renal it was 4.24 µM; in the assay with OVCAR-8 ovarian, 1.74 µM; in the assay on SK-MEL-2 melanoma, 18.4 µM; with HS 578T breast, 3.7 µM. Further, the GI50 was 5.23 µM with COLO 205 colon, 11.8 µM in the assay with UACC-257 melanoma and 6.67 µM in the assay with DU-145 prostate. Besides, the TGI was found to be 17.9 µM with M14 melanoma; 6.84 µM in the assay on SN12C renal; 18.7 µM in the assay on 786-0 renal; 7.67 µM in the assay on OVCAR-8 ovarian; 34.3 µM in the assay on SK-MEL-2 melanoma; 16 µM in the assay with HS 578T breast. In addition, the TGI amounted to 18.8 µM with COLO 205 colon, 25.4 µM with UACC-257 melanoma and 19.5 µM in the assay with DU-145 prostate.

On to `COCCNCC(O)Cn1c2ccc(Cl)cc2c2cc(Cl)ccc21` (centres undefined), for which the GI50 in the assay with M14 melanoma was 2.06 µM; in the assay on SN12C renal, 1.94 µM; in the assay on 786-0 renal it was 1.8 µM; in the assay with OVCAR-8 ovarian, 2.06 µM; in the assay on SK-MEL-2 melanoma, 2.16 µM; in the assay with HS 578T breast, 1.99 µM. Also, the GI50 in the assay on COLO 205 colon is 2.08 µM; in the assay on UACC-257 melanoma, 1.68 µM; with DU-145 prostate, 2.12 µM. Also, the TGI came to 4.16 µM with M14 melanoma; 4.46 µM in the assay on SN12C renal; 3.42 µM in the assay on 786-0 renal; 5.08 µM in the assay on OVCAR-8 ovarian; 4.18 µM with SK-MEL-2 melanoma; 5.51 µM with HS 578T breast. Moreover, the TGI in the assay with COLO 205 colon is 3.83 µM; with UACC-257 melanoma, 3.35 µM; in the assay with DU-145 prostate, 4.05 µM.

On to `CN(C)c1c(Cl)c(=O)oc2c1ccc1nc(-c3ccccc3)sc12`, for which the TGI in the assay with M14 melanoma, in the assay on SN12C renal, in the assay on RXF 393 renal, in the assay on 786-0 renal, in the assay with OVCAR-8 ovarian and in the assay with HS 578T breast was greater than 100 µM throughout. The TGI in the assay on COLO 205 colon, in the assay with UACC-257 melanoma and with DU-145 prostate was greater than 100 µM each time.

Regarding `O=C1OCC(c2ccc(O)c(O)c2)=C1c1cc(O)c(O)c(O)c1`, the GI50 with M14 melanoma was 23.9 µM; in the assay with SN12C renal, 15.8 µM; in the assay with RXF 393 renal, greater than 100 µM; in the assay on 786-0 renal, 18.1 µM; in the assay with OVCAR-8 ovarian, 75 µM; in the assay with HS 578T breast, 87.9 µM. Further, the GI50 was 23.3 µM in the assay with COLO 205 colon, 93.8 µM in the assay with UACC-257 melanoma and 32.7 µM in the assay with DU-145 prostate. Further, the TGI in the assay on M14 melanoma is 69.7 µM; with SN12C renal it was 29.6 µM; with RXF 393 renal, greater than 100 µM; in the assay with 786-0 renal, 32.7 µM; in the assay on OVCAR-8 ovarian it was greater than 100 µM; in the assay with HS 578T breast, greater than 100 µM. The TGI in the assay with COLO 205 colon is 57.7 µM; with UACC-257 melanoma, greater than 100 µM; with DU-145 prostate, greater than 100 µM.

In the case of `CCCOC(=O)N[C@H]1CCc2c(Br)c(OC)c(OC)c(OC)c2-c2ccc(SC)c(=O)cc21`, the GI50 with M14 melanoma is 0.0207 µM; in the assay with SN12C renal it was 0.0437 µM; in the assay with RXF 393 renal it was 0.0397 µM; in the assay on 786-0 renal, 0.0407 µM; in the assay on OVCAR-8 ovarian, 0.0438 µM; in the assay with SK-MEL-2 melanoma, 2.44 µM. The GI50 in the assay on HS 578T breast is 0.0321 µM; in the assay on UACC-257 melanoma it was 5.02 µM; in the assay with DU-145 prostate, 0.0305 µM. For the same molecule, the TGI in the assay on M14 melanoma was 3.67 µM; with SN12C renal, 17.3 µM; in the assay with RXF 393 renal, 24.8 µM; in the assay with 786-0 renal, 11.4 µM; in the assay with OVCAR-8 ovarian, greater than 100 µM; in the assay with SK-MEL-2 melanoma, 37.1 µM. Besides, the TGI with HS 578T breast amounted to 49.1 µM; with UACC-257 melanoma, 32.6 µM; in the assay with DU-145 prostate, 0.234 µM.

Consider `O=C(NO)c1ccc(C(=O)NO)cc1`, for which the TGI with M14 melanoma, in the assay on SN12C renal, in the assay on RXF 393 renal, with 786-0 renal, in the assay with OVCAR-8 ovarian and in the assay with HS 578T breast was greater than 100 µM throughout. Also, the TGI in the assay with COLO 205 colon, with UACC-257 melanoma and in the assay with DU-145 prostate was greater than 100 µM each time.

Regarding `Cc1ccc(S(=O)(=O)N(C)C)cc1[N+](=O)[O-]`, the GI50 with M14 melanoma, in the assay with SN12C renal, with RXF 393 renal, in the assay with 786-0 renal, with OVCAR-8 ovarian and with HS 578T breast was greater than 100 µM throughout. The GI50 in the assay on COLO 205 colon, with UACC-257 melanoma and in the assay with DU-145 prostate was greater than 100 µM throughout. Moreover, the TGI in the assay with M14 melanoma, with SN12C renal, with RXF 393 renal, in the assay with 786-0 renal, in the assay with OVCAR-8 ovarian and in the assay with HS 578T breast was greater than 100 µM each time. Moreover, the TGI in the assay on COLO 205 colon, in the assay with UACC-257 melanoma and in the assay with DU-145 prostate was greater than 100 µM throughout.

Source of the values: PubChem BioAssay (NCI).
